Results published in ChEMBL document CHEMBL4321845, “Discovery and Characterization of Potent Pan-Genotypic HCV NS5A Inhibitors Containing Novel Tricyclic Central Core Leading to Clinical Candidate” (J Med Chem, 2019).

Experiments:
[1] = target: T1, Nonstructural protein 5A (Hepatitis C virus) (UniProt Q5L478); assay: Inhibition of NS5A in HCV genotype 2a infected in human Huh7.5/J6/JFH1/EMCVIRES/hRlucNeo cells assessed as inhibition of replicon levels at 1 uM incubated for 72 hrs by luciferase reporter gene assay; conditions: Hepatitis C virus subtype 2a
T1 sequence (whole entry): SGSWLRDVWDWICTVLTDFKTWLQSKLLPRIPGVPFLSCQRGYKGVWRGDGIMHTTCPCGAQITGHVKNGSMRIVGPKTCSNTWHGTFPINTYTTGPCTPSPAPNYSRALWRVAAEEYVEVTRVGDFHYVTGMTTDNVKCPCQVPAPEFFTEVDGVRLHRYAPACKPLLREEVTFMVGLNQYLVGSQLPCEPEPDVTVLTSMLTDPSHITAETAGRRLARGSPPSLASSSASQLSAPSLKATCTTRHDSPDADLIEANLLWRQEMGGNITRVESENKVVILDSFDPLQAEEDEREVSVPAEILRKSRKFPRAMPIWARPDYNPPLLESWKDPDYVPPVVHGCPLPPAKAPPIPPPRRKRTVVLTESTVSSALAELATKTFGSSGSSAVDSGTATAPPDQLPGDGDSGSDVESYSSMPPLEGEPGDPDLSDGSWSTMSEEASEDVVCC

[2] = target: T1, Nonstructural protein 5A (Hepatitis C virus); assay: Inhibition of NS5A in HCV genotype 1b infected in human HuH7.5/Con1/SG-Neo(I)-hRluc2aUb cells assessed as inhibition of replicon levels at 0.1 uM incubated for 72 hrs by luciferase reporter gene assay relative to control; conditions: Hepatitis C virus subtype 1b
[3] = target: T1, Nonstructural protein 5A (Hepatitis C virus); assay: Inhibition of NS5A in HCV genotype 1b infected in human HuH7.5/Con1/SG-Neo(I)-hRluc2aUb cells assessed as inhibition of replicon levels at 1 uM incubated for 72 hrs by luciferase reporter gene assay relative to control; conditions: Hepatitis C virus subtype 1b

Structure (SMILES) | inhibition [1] | inhibition [2] | inhibition [3]
COC(=O)N[C@H](C(=O)N1CCC[C@H]1c1ncc(-c2ccc3c(c2)CC2c4ccc(-c5cnc([C@@H]6CCCN6C(=O)[C@@H](NC(=O)OC)C(C)C)[nH]5)cc4CC32)[nH]1)C(C)C (some centres undefined) | 11% | 75% | 
COC(=O)N[C@H](C(=O)N1CCC[C@H]1c1ncc(-c2cc3c(cc2OC)C2(CC3(C)C)CC(C)(C)c3cc(-c4cnc([C@@H]5CCCN5C(=O)[C@@H](NC(=O)OC)C(C)C)[nH]4)c(OC)cc32)[nH]1)C(C)C | 13% |  | 79%
